Experimental data taken from patent US20070219224A1, “Compositions and Methods Relating to Pyrimidine Synthesis Inhibitors” (UAB RESEARCH FOUNDATION, THE, priority 2004, published 2007).
“Also recorded” adds a separate entry of the source. Where two headings read alike, the source gives them in different places.

Assays:
RSV-infected BALB/c mice [1] = assay: Alveolar fluid clearance (AFC) in RSV-infected mice at day 2 p.i.; format: in vivo; conditions: for effect on RSV-mediated inhibition of AFC at d2 (in words): systemic treatment (leflunomide oral gavage; uridine, 6-MP i.p.)
Method: Preparation of viral inocula and infection of mice. […] J. Physiol. Lung Cell Mol. Physiol. […] Data for each experimental group was derived from a minimum of 2 independent infections.
(§1) Systemic inhibition of de novo pyrimidine and purine synthesis. Leflunomide (5-methylisoxazole-4-[4-trifluoromethyl]carboxanilide, 35 mg/kg in distilled water containing 1% methylcellulose) was administered once daily by oral gavage in a volume of 300 μl/mouse for 8 days prior to infection, then throughout the infection period. Vehicle controls were gavaged with an equivalent volume of 1% methylcellulose in distilled water.
To systemically block de novo pyrimidine synthesis, mice were gavaged once daily for 8 days with […] of the dihydro-orotate reductase (DHOR) inhibitor leflunomide ([…] suspended in 1% methylcellulose) or vehicle prior to infection, then at 0 and 24 hours p.i. AFC studies were performed at 48 hours p.i., with no additions to the AFC instillate.
(§2) AFC studies were performed on anesthetized, ventilated BALB/c mice with normal body temperature and blood gases, over a 30 minute period after intratracheal instillation of 0.3 ml of isosmolar NaCl containing 5% fatty acid-free BSA. The number of mice analyzed per group is listed in the relevant bar of each graph.

RSV-infected BALB/c mice [2] = assay: Heart rate change with ventilation (% ΔHR30), ECG; format: in vivo; conditions: RSV-infected mice during AFC procedures, d2
Method: Measurement of heart rate changes with ventilation. ECG tracings were used to measure heart rate (number of QRS complexes/cm) at the start (HRSTART) and end (HREND) of the AFC assay. The % change in rate over the 30-minute ventilation period (% ΔHR30) was calculated as (HRSTART−HREND)/HRSTART.
as §1, with “water. Uridine (1 g/kg in 0.9% NaCl) was administered by i.p. injection every 12 hours in a volume of 100 μl (8). 6-MP (35 mg/kg in 1N NaOH, pH adjusted to 7.9 with 2 M Na2HPO4) was administered by i.p. injection every 24 hours in a volume of 100 μl, for 5 days prior to infection, then throughout the infection period.” for “water.”

UTP/ATP content of BALF = assay: Measurement of nucleotides (UTP/ATP content) in BALF of RSV-infected mice; format: in vivo, BALB/c mice
Method: (§3) Preparation of viral inocula and infection of mice. Preparation of viral stocks and intranasal infection of eight to twelve week-old pathogen-free BALB/c mice of either sex with RSV strain A2 (10^6 PFU in 100 μl) were performed as described in Davis et al., “Nucleotide-mediated inhibition of alveolar fluid clearance in BALB/c mice after respiratory syncytial virus infection,” Am. J. Physiol. Lung Cell Mol. Physiol. 286:L112-L120. (2004). Data for each experimental group was derived from a minimum of 2 independent infections.
Bronchoalveolar lavage. Bronchoalveolar lavage fluid (BALF) was collected as previously described in Davis et al., (2004), using 1 ml of sterile normal saline for cytokine ELISAs, or 0.3 ml of sterile saline for nucleotide assays. Lavagates were centrifuged to remove cells and supernatants stored at −80° C.
Measurement of nucleotides in BALF. Endogenous nucleotidases in BALF were heat denatured (100° C., 3 minutes) and UTP/ATP content measured using the […] and luciferine-luciferase assays, respectively.
as §1, with “water. […]” for “water.”

RSV strain A2 = assay: RSV replication in mouse lungs; format: in vivo, Respiratory syncytial virus; conditions: for virus replication in lung tissue at d2: RSV-infected mice, day 2 p.i., systemic treatment
Method: as §3
as §1, with “water. […]” for “water.”

[3] = format: in vivo; conditions: for body weight loss after RSV infection: D1 and d2 p.i., versus untreated RSV-infected mice
Method: as §3
as §1, with “water. […]” for “water.”

RSV-infected BALB/c mice [4] = assay: Lung water content (wet:dry weight ratio) after RSV infection; format: in vivo; conditions: day 2, systemic treatment
Method: as §3
as §1, with “water. […]” for “water.”

uninfected BALB/c mice = assay: Alveolar fluid clearance (AFC) in uninfected or mock-infected mice; format: in vivo; conditions: for effect on AFC in uninfected / normal (mock-infected) mice (in words): leflunomide oral gavage
Method: Systemic inhibition of de novo pyrimidine and purine synthesis. […] Vehicle controls were gavaged with an equivalent volume of 1% methylcellulose in distilled water. Uridine (1 g/kg in 0.9% NaCl) was administered by i.p. injection every 12 hours in a volume of 100 μl (8). […]
as §2

RSV-infected BALB/c mice [5] = assay: Mean peripheral blood oxygen saturation (SmO2), pulse oximetry; format: in vivo; conditions: d2
Method: Measurement of mean peripheral blood oxygen saturation. Peripheral blood oxygen saturation was measured in conscious mice, using a PREEMIE OXYTIP® sensor (Datex-Olmeda, hic., Madison, Wis.), connected to a TUFFSAT™ pulse oximeter (Datex-Ohmeda, Inc., Madison, Wis.). Because of the extremely rapid pulse rate of the mouse, oximetry values are mean hemoglobin O2 saturation (SmO2) values from arterial and venous blood.
as §1, with “water. Uridine (1 g/kg in 0.9% NaCl) was administered by i.p. injection every 12 hours in a volume of 100 μl (8). 6-MP (35 mg/kg in 1N NaOH, pH adjusted to 7.9 with 2 M Na2HPO4) was administered by i.p. injection every 24 hours in a volume of 100 μl, for 5 days prior to infection, then throughout the infection period.” for “water.”

[6] = d2, leflunomide 35 mg/kg oral gavage once daily, uridine 1 g/kg i.p. every 12 hours

## Cc1oncc1C(=O)Nc1ccc(C(F)(F)F)cc1 [Leflunomide, 5-methylisoxazole-4-[4-trifluoromethyl]carboxanilide]
RSV-infected BALB/c mice [1]; RSV-infected leflunomide-treated mice at d2 (61% in uninfected, −8% in untreated mice at d2)
  amiloride-sensitive part of AFC: 57%
RSV-infected BALB/c mice [1]; RSV-infected mice, day 2 p.i., leflunomide 5 mg/kg oral gavage once daily, uridine 1 mg/kg i.p. q12h
  AFC30BASAL (mean % basal AFC after 30 minutes ± SE): 33.4 ± 3.00 %
RSV-infected BALB/c mice [1]
  effect on RSV-mediated inhibition of AFC at d2 (in words): blocked RSV-induced inhibition of AFC
RSV-infected BALB/c mice [1]; listed as LEF
  effect on RSV-mediated inhibition of AFC at d2 (in words): reverses RSV-mediated inhibition of AFC
RSV-infected BALB/c mice [1]; listed as leflunomide
  effect on RSV-mediated inhibition of AFC at d2 (in words): prevented RSV-induced inhibition of AFC; also recorded: reversed the inhibitory effect of RSV on AFC
RSV-infected BALB/c mice [2]
  % ΔHR30: prevented the increase in % ΔHR30
UTP/ATP content of BALF; d2
  effect on BALF nucleotide (UTP, ATP) levels (in words): No increase in BALF nucleotide levels was detected; also recorded: reduced BALF content of both nucleotides to levels below those in untreated, uninfected mice
UTP/ATP content of BALF; [6]
  ATP, mean nucleotide concentration in BALF ± SE: 6 ± 1 nmol/L
  UTP, mean nucleotide concentration in BALF ± SE: 5 ± 2 nmol/L
RSV strain A2
  virus replication in lung tissue at d2: unaffected
RSV strain A2; listed as LEF
  virus replication in lung tissue at d2: no effect on virus replication
RSV strain A2; leflunomide continued throughout the 8 day infection period
  virus replication at d8, treatment continued: persisted at high levels
RSV strain A2; leflunomide discontinued after d2
  virus replication at d8, treatment discontinued: only minimally increased
[3]
  body weight loss after RSV infection: significantly reduced the degree of weight loss
[3]; listed as LEF
  body weight loss after RSV infection: significant reduction in weight loss
[3]; listed as leflunomide
  body weight loss after RSV infection: significantly reduced the degree of weight loss
[3]; before RSV infection, leflunomide 8 days, 6-MP 5 days
  body weight during the pretreatment (preinfection) period: no significant decline in body weight
[3]; mouse, in vivo
  toxicity (inferred from body weight): very limited leflunomide toxicity
RSV-infected BALB/c mice [4]
  lung water content (wet:dry weight ratio) (in words): normalization of lung wet:dry weight ratios
RSV-infected BALB/c mice [4]; listed as LEF
  lung water content (wet:dry weight ratio) (in words): reverses RSV-induced increased in lung water content
RSV-infected BALB/c mice [4]; listed as leflunomide
  lung water content (wet:dry weight ratio) (in words): restored normal lung wet:dry weight ratios
Uninfected BALB/c mice
  effect on AFC in uninfected / normal (mock-infected) mice (in words): no detrimental effect on AFC
Uninfected BALB/c mice; listed as LEF
  effect on AFC in uninfected / normal (mock-infected) mice (in words): no effect on AFC
Uninfected BALB/c mice; listed as leflunomide
  effect on AFC in uninfected / normal (mock-infected) mice (in words): significant inhibition of AFC
Uninfected BALB/c mice; mock-infected mice, leflunomide 5 mg/kg oral gavage once daily
  AFC30BASAL (mean % basal AFC after 30 minutes ± SE): 33.16 ± 2.40 %
Uninfected BALB/c mice; uninfected mice, leflunomide-treated
  AFC (mean % AFC ± SE): 29.98 ± 1.5 %
RSV-infected BALB/c mice [5]
  SmO2 (mean blood O2 saturation): improved mean blood O2 saturation; also recorded: normalization of SmO2 readings
